Results published in article PMC12162873, “Modulating phosphatase DUSP22 with BML-260 ameliorates skeletal muscle wasting via Akt independent JNK-FOXO3a repression” (EMBO Molecular Medicine, 2025).
Values joined by “and” are separate entries in the source; they are usually repeats but may differ in a detail not shown here. Equal values may be shown once.

How the values were obtained:
[1] = test system: TA muscle of C57BL/6 mice; test: Whole genome RNA-Seq of TA muscle of geriatric mice; assay type: in vivo, mouse; details: 5 mg/kg IP every 24 h for 4 weeks
From the text: Figure 8 Whole genome RNA Seq analysis of DUSP22 pharmacological targeting in geriatric mouse TA muscle. (A) Principal component analysis of gene expression variance in the vehicle treated (Con) and BML-260 treated groups (n = 3). (B) Volcano plot of differentially expressed genes. Selected genes linked to FOXO3a signaling are indicated. (C) Expression analysis of genes related to FOXO3a signaling measured by overall TPM fold change. The control was set as the baseline value of 1. A value of 2 would indicate a 2-fold increase, and 0.5 would indicates a 2-fold decrease. (D) Expression of selected genes linked to FOXO3a signaling as normalized counts from the raw read. (E) Expression of the exercise-induced myokine musclin (Ostn). (F) Gene ontology (GO) analysis of the […] muscle cell differentiation and muscle fiber development. Also shown are Six1 and Six4 (which specify fast twitch myofiber development), Ostn and fast myosin (MYH4; the predominant myosin type in the fast-twitch TA muscle). Box plots represent the distribution of Fbxo32, Trim63, Fbxo30, Gadd45a, Ctsl, Bnip3, Ostn expression levels. The center line indicates the median (50th percentile, Q2), representing the middle value of the dataset. The box bounds correspond to the interquartile range (IQR), extending from the 25th percentile (Q1, lower bound) to the 75th percentile (Q3, upper bound). Whiskers extend to the smallest and largest values within 1.5 × IQR from Q1 and Q3, representing the minimum (lower whisker) and maximum (upper whisker) values within this range. […] Error bars represent the standard error of the mean (SEM). Source data are available online for this figure.
RNA samples were harvested from the TA muscles of 24–26-month-old male C57BL/6 mice treated as follows: (1) vehicle alone (5% DMSO + 5% tween 80) and (2) 5 mg/kg BML-260. Mice were treated by IP delivery every 24 h for 4 weeks (n = 3 per group). RNA-Seq was provided by Macrogen, Republic of Korea. Prior to the commencement of sequencing, QC was carried out using FastQC v0.11.7 (http://www.bioinformatics.babraham.ac.uk/projects/fastqc/). Illumina paired ends or single ends in the sequenced samples were trimmed using Trimmomatic 0.38 with various parameters (http://www.usadellab.org/cms/?page=trimmomatic). The sequences of the samples were mapped and analyzed using HISAT2 version 2.1,0, Bowtie2 2.3.4.1 (https://ccb.jhu.edu/software/hisat2/index.shtml). Potential transcripts and multiple splice variants were assembled using StringTie version 2.1.3b (https://ccb.jhu.edu/software/stringtie/). The normalized sample counts were generated using DESeq2, which was also used for normalization, visualization, and differential analysis. PCA was performed using normalized sample counts. The “apeglm” type was used to calculate shrink log2 fold changes.

[2] = test system: 24-26-month-old male C57BL/6 mice; test: Skeletal muscle aging model, BML-260 treatment; assay type: in vivo, mouse; design: Area / Feret / Feret, Average / Area, Average: unit not given here; details: for Area / Feret: listed as BML
Method: To assess DUSP22 pharmacological targeting, BML-260 was treated to 24–26-month-old male C57BL/6 mice as follows: (1) vehicle alone (5% DMSO + 5% tween 80) and (2) 5 mg/kg BML-260 (n = 5 per group). Mice were treated via IP delivery every 24 h for 4 weeks and then assessed for skeletal muscle function and condition.
Grip strength was measured using the BIO-GS3 device (Bioseb, FL, USA). Mice were placed onto the grid with all four paws attached and gently pulled backwards to measure the grip strength until the grid was released. The maximum grip value, used to represent muscle force, was calculated using 3 trials with an interval of 30 s.
Muscle fatigue was measured the previously described protocol (Chiu et al, [2018]), with two different models using the Rotarod. One was the constant model and the other was the accelerating model that is inherent in the rotarod device. In brief, the mice were accommodated to training before the commencement of the fatigue task using an accelerating rotarod (Ugo Basile, Italy). The mice were trained at a constant speed of 13 rpm for 15 min. After a recovery period of 15 min, the mice were placed on the rotarod adjusted to accelerate from 13 to 25 rpm in 3 min for 15 min. 24 h later, the muscle fatigue test was carried out with speeds ramping from 13 to 25 rpm in 3 min, and maintained at 25 rpm for a 30 min interval. Latency to fall off the rotarod was measured for each mouse. A fatigued mouse was classified as falling off 4 times within a 1 min period, which also terminated the test.
Mice were anesthetized using ketamine (22 mg/kg; Yuhan, Republic of Korea) and xylazine (10 mg/kg; Bayer, Republic of Korea) in saline by IP injection. The quadriceps, gastrocnemius, soleus and TA muscles were then dissected and weighed. For histological analysis, the muscles were fixed by overnight incubation with 4% paraformaldehyde in PBS pH 7.4 at 4 °C. Paraffin sectioning and H&E staining were provided by the Animal Housing Facility, Gwangju Institute of Science and Technology, Republic of Korea (5 µm muscle sections using a Thermo Scientific HistoStar (Thermofisher). H&E staining was carried out with a kit (Merck, Germany)). For immunohistochemistry, TA muscle sections were permeabilized for 15 min (PBS with 0.5% Triton X-100), blocked for 1 h (5% BSA) and incubated with the primary antibody overnight at 4 °C (a list of primary and secondary antibodies used in this study are provided in Appendix Tables S4 and S5, respectively). After washing with PBS 3 times for 5 min, the sections were incubated with the secondary antibody at RT for 1 h. The nuclei were counterstained with DAPI in ProLong™ Gold Antifade Mountant (Invitrogen, P36935). Digital images were acquired with Leica DM 2500 (Leica Microsystems). Cross sectional area (CSA) and fiber size distribution was measured using the NIH imaging software Image J 64. To CSA and size distribution of different fiber types was calculated in 4 muscle section as follows: type 2 A: 30–40 fibers measured; type 2B: at least 100 fibers measured; type 2X: 30–40 fibers measured.

[3] = 5 mg/kg IP every 24 h for 4 weeks
[4] = S10.B, group average of 3 animals
[5] = S10.B, individual measurements, animal BML 1
[6] = S10.B, mean per animal (BML 1, BML4, BML5)

In the case of `O=C(O)c1ccc(N2C(=O)C(=Cc3ccccc3)SC2=S)cc1` (stereo in doubt) [BML-260], the “expression of Six1 and Six4” value [1] is reported as “upregulated”, the “expression of fast myosin (MYH4)” value [1] is reported as “increased” and the “expression of musclin (OSTN)” value [1] is reported as “upregulated”. For the same molecule, the “genes linked to FOXO3a signaling (including atrogin-1 and MuRF-1)” value [1] was “downregulated”, the “genes linked to the PI3K-Akt pathway” value [1] was “downregulated” and the “number of differentially expressed genes (DEGs)” value ([1]; versus vehicle) was 350. For the same molecule, the “CSA and Feret's diameter of type 2A, 2B and 2X myofibers, TA and gastrocnemius” value [2, 3] was “increased”, the “DUSP22 levels in the TA muscle, western blot” value [2, 3] was “reduced DUSP22 levels” and the body weight [2, 3] was “not significantly affected”. The “expression of PGC-1α, qPCR” value [2, 3] was “increased”, the “expression of atrogin-1 and MuRF-1 in the TA muscle, qPCR” value [2, 3] was “reduced” and the “expression of myostatin, qPCR” value [2, 3] was “reduced”. For the same molecule, the “grip strength mean value” [2, 3] was “increased by BML-260 treatment but did not reach statistical significance”, the “latency to fall in the rotarod test” value [2, 3] was “statistically increased” and the “mass of quadriceps, gastrocnemius, TA and soleus muscles” value [2, 3] was “increased the mean mass value of the quadriceps, gastrocnemius, TA and soleus muscles, and reached statistical significance for the TA and gastrocnemius muscles”. For the same molecule, the “proportion of slow type 1 myofibers” value [2, 3] was “did not significantly affect”, the “Area, Average” value [2, 4] was 2003.72 and the “Feret, Average” value [2, 4] was 60.0894. For the same molecule, the Area [2, 5] was 2289.78 and 2476.44 and 2826.67 and 1960.89 and 2172.44 and 1594.67 and 2152.89 and 2090.67 and 1617.78 and 2085.33 and 2567.11, the Feret [2, 5] was 75.248 and 68.56 and 66.573 and 63.175 and 60.296 and 56.506 and 57.366 and 56.056 and 52.173 and 66.306 and 72.271 and the Area [2, 6] was 2166.79 and 2165.89 and 1678.47. For the same molecule, the Feret [2, 6] was 63.1391 and 63.015 and 54.114, the “DUSP22 expression, western blot quantification, Average” value ([2]; TA of aged mice (Fig EV4A), Young average = 1) was 0.2806 and the “DUSP22 expression, western blot quantification” value ([2]; TA of aged mice (Fig EV4A), Young average = 1, individual animals) was 0.2303 and 0.3985 and 0.213. For the same molecule, the “increase of grip strength” value ([2]; aged skeletal muscle) was over 20%.
